Source: publication PMC9069370, “Integrated Design of a Membrane‐Lytic Peptide‐Based Intravenous Nanotherapeutic Suppresses Triple‐Negative Breast Cancer” (Advanced Science, 2022)
Peptide text beside a SMILES is read from it.

What was measured:
[1] = test system: HMLER; test: cells; assay type: cell-based, human; conditions: 72 h
From the text: (§1) […], and MCF-10A cells were maintained in MEGM with supplements and growth factors bovine pituitary extract, hydrocortisone, human epidermal growth factor, insulin, and gentamicin/amphotericin-B.

[2] = test system: HMLER‐shEcad; test: cells; assay type: cell-based, human; conditions: 72 h
From the text: as §1

[3] = test system: MCF‐10A; test: cells; assay type: cell-based, human; conditions: 72 h
From the text: as §1

[4] = test system: U2OS; assay type: cell-based, human; conditions: 72 h
[5] = test system: HEK293T; test: cells; assay type: cell-based, human; conditions: 72 h
[6] = Tryptophan fluorescent binding assay; conditions: tryptophan fluorescence; 50 µM peptide, lipid titrated 0-5000 µM; phosphate buffered saline 1X, pH 7.4; values as lipid per peptide
Experimental: 50 µM ACP peptides and varied concentrations (concentrations: 0, 25, 50, 100, 150, 200, 250, 500, 1250, and 2500 µM) of POPC or POPC:POPG (3:1 ratio) large unilamellar vesicles were prepared in 10 mM phosphate buffer (pH 7.0). The solutions were measured after 1 h of incubation. Excitation was fixed at 280 nm (slit 9 nm) and emission was collected from 300 to 450 nm (slit 9 nm). The spectra were recorded using Cytation 5 Cell Imaging Multi‐Mode Reader from BioTek and were averaged by three scans.
Lipid Concentration-induced
Name Sequence† 50% Peptide Binding (L/P)
Extended Data Table 3 | Tryptophan binding assay. […]
peptide binding onto liposome. 50 µM peptides were fixed and incubated with titrated lipid (POPC vesicle […]
phosphate buffered saline (1X, pH 7.4). The lipid concentration that causes 50 % peptide binding was determined using tryptophan fluorescent binding assay and the values are shown as lipid per peptide.

[7] = ANTS/DPX liposome leakage assay; conditions: for Peptide Concentration-induced 50 % ANTS/DPX leakage at pH 4.8 (L/P), 3POPC/1POPG Vesicle / Peptide Concentration-induced 50 % ANTS/DPX leakage at pH 4.8 (L/P), POPC Vesicle / Peptide Concentration-induced 50 % ANTS/DPX leakage at pH 7.4 (L/P), 3POPC/1POPG Vesicle / Peptide Concentration-induced 50 % ANTS/DPX leakage at pH 7.4 (L/P), POPC Vesicle: 0.5 mM vesicles, peptide 0-20 µM, 3 h incubation, lipid per peptide; for Peptide Concentration-induced 50 % ANTS/DPX leakage at pH 4.8 (L/P), 3POPC/1POPG Vesicle / Peptide Concentration-induced 50 % ANTS/DPX leakage at pH 4.8 (L/P), POPC Vesicle: HCl-adjusted PBS 1X pH 4.8; for Peptide Concentration-induced 50 % ANTS/DPX leakage at pH 7.4 (L/P), 3POPC/1POPG Vesicle / Peptide Concentration-induced 50 % ANTS/DPX leakage at pH 7.4 (L/P), POPC Vesicle: PBS 1X pH 7.4, high ratio = more potent
Experimental: Vesicle preparation: 5 mM ANTS and 12.5 mM DPX were entrapped in 0.1 µm diameter extruded vesicles (either POPC or POPC/POPG at a ratio of 3:1) with lipids. Gel filtration chromatography of Sephadex G‐100 was used to remove external free ANTS/DPX from LUVs with entrapped contents. LUVs were diluted to 0.5 mM and used to measure the leakage activity by the addition of aliquots of ACPs. Leakage was measured after 3 h incubation. 10% Triton was used as the positive control to measure the maximum leakage of the vesicle. Fluorescence emission spectra were recorded using excitation and emission wavelength of 350 and 510 nm for ANTS/DPX using a BioTek Synergy H1 Hybrid Multi‐Mode Reader.
Peptide Concentration-induced Peptide Concentration-induced
Name Sequence† 50 % ANTS/DPX leakage 50 % ANTS/DPX leakage at pH 7.4 (L/P) at pH 4.8 (L/P)
POPC Vesicle 3POPC/1POPG Vesicle POPC Vesicle 3POPC/1POPG Vesicle […]
Extended Data Table 4 | Peptide concentration-induced 50 % ANTS/DPX liposome leakage. 0.5 mM POPC and 3POPC/1POPG vesicles were fixed and incubated with titrated peptide concentration (0, 0.02, […]
hydrochloric acid-adjusted phoshate buffered saline (1X, pH 4.8). The values are shown as lipid per

Row | Structure (SMILES) | IC50 [1] [µM] | IC50 [2] [µM] | IC50 [3] [µM] | IC50 [4] [µM] | IC50 [5] [µM] | Lipid Concentration-induced 50% Peptide Binding (L/P), 3POPC/1POPG Vesicle [6] [L/P] | Lipid Concentration-induced 50% Peptide Binding (L/P), POPC Vesicle [6] [L/P] | Peptide Concentration-induced 50 % ANTS/DPX leakage at pH 4.8 (L/P), 3POPC/1POPG Vesicle [7] [L/P] | Peptide Concentration-induced 50 % ANTS/DPX leakage at pH 4.8 (L/P), POPC Vesicle [7] [L/P] | Peptide Concentration-induced 50 % ANTS/DPX leakage at pH 7.4 (L/P), 3POPC/1POPG Vesicle [7] [L/P] | Peptide Concentration-induced 50 % ANTS/DPX leakage at pH 7.4 (L/P), POPC Vesicle [7] [L/P] | change of ANTS/DPX dye leakage / liposome selectivity at pH 4.8 ([7]; pH = 4.8 compared with physiological pH, anionic versus neutral liposomes)
1 | CC(C)C[C@H](NC(=O)CN)C(=O)N[C@@H](CC(C)C)C(=O)N[C@@H](CCC(=O)O)C(=O)N[C@@H](CC(C)C)C(=O)N[C@@H](CC(C)C)C(=O)N[C@@H](Cc1c[nH]cn1)C(=O)N[C@@H](CC(C)C)C(=O)N[C@@H](CC(C)C)C(=O)N[C@@H](CC(C)C)C(=O)N[C@@H](Cc1c[nH]cn1)C(=O)N[C@@H](C)C(=O)N[C@@H](C)C(=O)NCC(=O)N[C@@H](Cc1c[nH]c2ccccc12)C(N)=O [EHH] (H-GLLELLHLLLHAAGW-NH2) | 25.4 ± 2.76 | 16.1 ± 3.18 | 150 ± 71 | 117 ± 7 | 5.9 ± 0.14 | 0.69 | 0.94 | 80 | 386 | 981 | 1043 | increased selectivity for neutral bilayers
2 | CC(C)C[C@H](NC(=O)CN)C(=O)N[C@@H](CC(C)C)C(=O)N[C@@H](CCC(=O)O)C(=O)N[C@@H](CC(C)C)C(=O)N[C@@H](CC(C)C)C(=O)N[C@@H](Cc1c[nH]cn1)C(=O)N[C@@H](CC(C)C)C(=O)N[C@@H](CC(C)C)C(=O)N[C@@H](CC(C)C)C(=O)N[C@@H](CCCCN)C(=O)N[C@@H](C)C(=O)N[C@@H](C)C(=O)NCC(=O)N[C@@H](Cc1c[nH]c2ccccc12)C(N)=O [EHK] (H-GLLELLHLLLKAAGW-NH2) | 1.35 ± 0.35 | 0.71 ± 0.13 | 3.6 ± 0.99 | 25 | 5.35 ± 0.07 | 0.42 | 0.56 | 117 | 55 | 505 | 981 | 
3 | CC(C)C[C@H](NC(=O)CN)C(=O)N[C@@H](CC(C)C)C(=O)N[C@@H](CCC(=O)O)C(=O)N[C@@H](CC(C)C)C(=O)N[C@@H](CC(C)C)C(=O)N[C@@H](CCCCN)C(=O)N[C@@H](CC(C)C)C(=O)N[C@@H](CC(C)C)C(=O)N[C@@H](CC(C)C)C(=O)N[C@@H](CCC(=O)O)C(=O)N[C@@H](C)C(=O)N[C@@H](C)C(=O)NCC(=O)N[C@@H](Cc1c[nH]c2ccccc12)C(N)=O [EKE] (H-GLLELLKLLLEAAGW-NH2) | 1.8 ± 0.28 | 1.3 ± 0.14 | 8.8 | 8 ± 0.71 | 5.15 ± 0.21 | 1.63 | 2.75 | 438 | 75 | 657 | 738 | 
4 | CC(C)C[C@H](NC(=O)CN)C(=O)N[C@@H](CC(C)C)C(=O)N[C@@H](CCC(=O)O)C(=O)N[C@@H](CC(C)C)C(=O)N[C@@H](CC(C)C)C(=O)N[C@@H](CCCCN)C(=O)N[C@@H](CC(C)C)C(=O)N[C@@H](CC(C)C)C(=O)N[C@@H](CC(C)C)C(=O)N[C@@H](Cc1c[nH]cn1)C(=O)N[C@@H](C)C(=O)N[C@@H](C)C(=O)NCC(=O)N[C@@H](Cc1c[nH]c2ccccc12)C(N)=O [EKH] (H-GLLELLKLLLHAAGW-NH2) | 2.75 ± 0.07 | 2.18 ± 0.31 | 7.9 ± 0.42 | 23.8 ± 0.81 | 6.65 ± 1.34 | 0.19 | 0.75 | 88 | 55 | 365 | 608 | 
